The text below walks through data of patent publication US8334316B2, “Substituted organosulfur compounds and methods of using thereof” (ACEA Biosciences, Inc., priority 2004, dated 2012).

Values joined by “and” are separate entries in the source; they are usually repeats but may differ in a detail not shown here. Equal entries are not always repeated. Marks after values point to notes of the source that are not given here.

The subject of data set [1] is purified bovine brain tubulin. Briefly: In vitro microtubule dynamics (dynamic instability) assay, video microscopy. Type of data set: biochemical. On the procedure: Tubulin Purification and Microtubule Dynamics Assays. Tubulin was purified, as described in the literature (“Kinetic stabilization of microtubule dynamic instability in vitro by vinblastine”, Toso, R. J., Jordan, […]., Matsumoto, B. and Wilson, L., Biochemistry, 1993, 32, 1285-1293). Briefly, microtubule-associated protein-rich bovine brain microtubule protein was prepared by three cycles of assembly and disassembly. Tubulin was purified from other microtubule proteins by elution through a Whatman P-11 phosphocellulose column equilibrated in PEM50 (50 mM Pipes, 1 mM MgSO4, 1 mM EGTA, 0.1 mM GTP). Purified tubulin (>99% pure) was drop-frozen in liquid nitrogen and stored at -70° C. […] The dynamics of individual microtubules were recorded at 37° C. using differential interference contrast enhanced video microscopy. The ends were designated as plus or minus on the basis of the growth rate, the number of microtubules that grew at opposite ends of the seeds, and the relative lengths of the microtubules (Panda, D., Goode, […]. and Wilson, L., Kinetic stabilization of microtubule dynamics at steady state by tau and microtubule-binding domains of tau, Biochemistry, 1995, 34, 11117-11127; Walker, R. A., O'Brien, […]., Voter, W. A., Erickson, H. P. and Salmon, E. D., Dynamic instability of individual microtubules analyzed by video light microscopy: rate constants and transition frequencies, J. Cell Biol. 1988, 107, 1437-1448). Plus ends were analyzed for 10 minutes per slide during the steady-state phase of polymerization ( 45 min after initiation of polymerization). Life histories of individual microtubules were collected as described by Panda et al. 1995 (Panda, D., Goode, […]. and Wilson, L., Kinetic stabilization of microtubule dynamics at steady state by tau and microtubule-binding domains of tau, Biochemistry, 1995, 34 11117-11127) with modifications. Data points were collected at 1-3 s intervals. […] Average rates, lengths and durations are the averages of independent events. The catastrophe frequency was calculated by dividing the number of shortening events by the total time of growth and attenuation tracked, and rescue frequency was calculated by dividing the number of rescue events by the total time of shortening tracked. To control for experimental error, each condition was filmed over multiple days using at least two distinct tubulin/GTP mixtures (2-3 slides each). No gross variation in microtubule dynamics was observed between mixtures or slides of a given condition. The concentration of drug used in dynamic instability assays was chosen by initially observing microtubules stabilized with half the concentration used in microtubule assembly assays.

The test system of data set [2] is Bcap-37 human breast cancer. The data set is described as follows: Bcap-37 human breast cancer xenograft in nude mice, dosing from 24 h after transplantation (Example 3). Type of data set: in vivo. The conditions noted are these: for tumor inhibition rate %: vs solvent control. The text has this: Both male and female mice were used. […] Test control. […] Preparation and Administration of Test Compounds. […] For human tumor xenograft model, all used materials, including animal food, animal cage, supporting materials and apparatus contacted by animals, were high-pressure sterilized. Nude mice were maintained in laminar flow shelves under SPF condition. After tumor transplantation, mouse weight and tumor size in each compound dosage group were dynamically monitored and plotted.
(In general: A xenograft is tissue or cells of one species grown in another, often human tumour cells in immunodeficient mice.)

A further data set concerns mouse Lewis lung cancer. Briefly: In vivo antitumor efficacy, mouse Lewis lung cancer model, Example 3 (ACEA100108). The conditions noted are these: for Inhibition rate (%): vs solvent control.
Data set [3] concerns A549 human lung cancer cells. The data set is described as follows: Cell-cycle distribution by propidium iodide flow cytometry in A549 cells. In kind it is cell-based. Conditions: 7.8 nM, 24 hrs, vs DMSO. On the procedure: Another in vitro assay may be used to evaluate the effect of compounds in arresting the cell cycle progression. More specifically, a test compound is added to cells of certain cell lines in a concentration-dependent manner. After cells are incubated for certain specific length of time, cells are stained using propidium iodide and are used for flow cytometric assessment. The cell populations of sub-G0/G1, G0/G1, S and G2/M phases are determined. All above in vitro assays are cell-based, single-time point (or multiple-time points using multiple plates) end-point assays.
Microtubules are extremely important in the process of mitosis, during which the duplicated chromosomes of a cell are separated into two identical sets before cleavage of the cell into two daughter cells. […] As consequence, cells will be arrested at G2/M phase.
In briefly, A549 cells were seeded at a density of 500,000 cells in 60 mm tissue culture dishes. Approximately 18 hours later the cells were treated with the indicated concentrations of anti-mitotic compounds and allowed to further incubate for 24 hours. The cells were washed in PBS, trypsinized, counted and fixed in ice-cold 70% methanol and stored at 4° C. The cells were washed with PBS, stained with propidium iodide and kept on ice until flow cytometry analysis.
(In flow cytometry, cells or beads pass a laser one at a time.)

In data set [4] the test system is ao10/17 human ovarian cancer. Briefly: ao10/17 human ovarian cancer xenograft in nude mice (Example 4). In kind it is in vivo. The conditions noted are these: 10 mg/kg iv x7 qd; 7 D after transplantation.
[5] abbreviates: 50 mg/kg iv x7 qd, 7 days after transplantation.
Where [6] appears, read: 10 mg/kg iv x7 qd, 7 days after transplantation.

Method for mouse Lewis lung cancer: For human tumor xenograft models, cancer cells were passed twice in vivo before being transplanted into the nude mice for the study. Cultured human cancer cells in flask were first xenograft-transplanted in immunodeficient nude mice. After the cancer cells grew to a tumor of certain sizes in the nude mice, the tumor was removed form the nude mice and tumor tissues were dissected. The cell suspensions were prepared from the dissected tumor tissue and transplanted back to immunodeficient nude mice again (i.e. the second passage of cancer cells in human cancer xenograft-transplanted model). After the cancer cells grew to certain size, the tumor was removed from nude mice and the tumor tissues were dissected. The cell suspensions were prepared from dissected tissues and were used for the study of human cancer xenograft models described here.
Both male and female mice were used. However, for each experiment, animals of same sex were used. For the mouse transplanted tumor model, the numbers of animals tested were as follows: 10 for each dose group, 10 for positive control group and 20 for negative control group. For human tumor xenograft model, the numbers of animals tested were as follows: 6 for each dose group, 6 for positive control group and 12 for negative control group.
Test control. For negative control, each mouse was administered intravenously with the solvent only having the same volume and same concentration as those used in high dose ACEA100108 test, once a day, for 7 consecutive days. […] In a reference group, DBTS was administered intravenously at 50 mg/kg, once a day for 7 consecutive days.
Preparation and Administration of Test Compounds. […] Each time before use, this solution was diluted in normal saline to achieve desired ACEA100108 concentrations. Each mouse (about 20 g in weight) was administered intravenously with the compound solution of 0.5 mL at a controlled injection speed of 0.5 ml/0.5 min. 24 hrs after the tumor transplantation, intravenous injections of compound solutions into carrier mice were performed once a day, for consecutive 7 or 10 days.
Preparation of Tumor Cells for Transplantation and Determination of Compound Efficacy. To prepare the cancer cells for mouse Lewis lung cancer model, human breast cancer xenograft model and human colon cancer xenograft model, the fast growing tumors were first removed from the transplanted tumor mice. The tumor tissues were dissected and tumor cell suspensions were prepared in normal saline to have a concentration of 2-4×10^7 cells/ml. 0.2 ml of cell suspension was subcutaneously injected into the axillary region (right-side) of each mouse. […] Between two and four weeks after transplantation, mice were sacrificed and the transplanted tumors were removed from experimental mice.

On to `Cc1cccc(CSSSCc2cccc(C)c2)c1` [ACEA100116, di(m-methylbenzyl)trisulfide], for which, in data set [1] (plus ends, steady state), the “Effect on length of growth events” value is “little effect upon the length of growing events”, the “Effect on length of shortening events” value is recorded as “strong effect upon the length of shortening events”, the “Effect on microtubule growth rate” value was “increased the growth rate” and the “Effect on rate of shortening” value is “no effect upon the rate of shortening”.

Regarding `c1ccc(CSSSCc2ccccc2)cc1` [DBTS, Dibenzyl trisulfide], in data set [2] (setting [5]), the “Mice with palpable tumor / total mice” value is listed as 2/6†† and the “Tumor volume (cm^3)” value amounted to 0.01 cm^3. Further, the “Tumor volume (cm^3)” value in data set [2] (50 mg/kg iv x7 qd, 14 d) turned out to be 0.014 ± 0.01 cm^3. In data set [2] (50 mg/kg iv x7 qd, 21 d), the “Tumor volume (cm^3)” value was found to be 0.079 ± 0.01 cm^3. The “Tumor volume (cm^3)” value in data set [2] (50 mg/kg iv x7 qd, 24 d (end), listed as ACEA100101) is 0.196 cm^3 and 0.196 ± 0.02 cm^3. In data set [2] (50 mg/kg/d iv x7 qd), the “TV inhibition rate % T/C” value was 11.17%, the “Tumor weight” value is 0.568 ± 0.07 g and the “tumor inhibition rate %” value was 66.98%. Also, the “Body weight of mice” value in data set [2] (50 mg/kg/d iv x7 qd, 0 day (beginning), listed as ACEA100101) is 18.0 g and 18 ± 1 g. Moreover, the “Body weight of mice” value in data set [2] (50 mg/kg/d iv x7 qd, 7 day) worked out at 18.7 ± 0.8 g. Further, the “Body weight of mice” value in data set [2] (50 mg/kg/d iv x7 qd, 14 d) is recorded as 20.3 ± 0.8 g. In addition, the “Body weight of mice” value in data set [2] (50 mg/kg/d iv x7 qd, 21 d) worked out at 22 ± 0.6 g. For the same compound, in data set [2] (50 mg/kg/d iv x7 qd, 24 d (end), listed as ACEA100101), the “Body weight of mice” value was 22.8 g and 22.8 ± 1.6 g. Moreover, in data set [1] (DBTS .1uM), the “% time spent in attenuation phase” value is 52%, the “% time spent in growth phase” value was found to be 45%, the “% time spent in shortening phase” value is on record as 3% and the Dynamicity was 1.72 um/min. For the same compound, in data set [1] (DBTS .1uM), the “Frequency of transitions ± SD: Catastrophes” value was determined as 0.17 ± 0.04 events/min, the “Frequency of transitions ± SD: Rescues” value was found to be 5.3 ± 1.3 events/min, the “Frequency of transitions ± SD: Total” value was determined as 0.50 ± 0.07 events/min and the “Growth Rate ± SEM” value came out at 1.55 ± 0.1 um/min. In addition, in data set [1] (DBTS .1uM), the “Mean duration of attenuation ± SEM” value stood at 2.15 ± 0.3 and the “Shortening Rate ± SEM” value is given as 35.40 ± 6.0 um/min. Besides, in data set [1] (growth events, DBTS .1uM), the “Duration of Event” value was 2.21 ± 0.3 min and the “Length of Excursion” value is reported as 3.34 ± 0.3 um. Also, in data set [1] (plus ends, steady state), the “Effect on duration of growth events” value was “increase the average duration of growth events”; the “Effect on length of growth events” value was “increase the average duration of growth events and consequently the average length grown in a growth event”; the “Effect on length of shortening events” value is on record as “reduced”; the “Effect on microtubule growth rate” value is on record as “did not affect the microtubule growth rate”. For the same compound, the “Effect on percentage of time spent growing” value in data set [1] (plus ends, steady state) is listed as “increased the percentage of time spent growing”. In data set [1] (shortening events, DBTS .1uM), the “Duration of Event” value came out at 0.17 ± 0.04 min and the “Length of Excursion” value was found to be 6.02 ± 0.3 um. For the same compound, in the data set on mouse Lewis lung cancer (25 mg/kg/d iv x7 qd), the “Animal No. beginning/end (survival)” value was 10/10, the “Animal weight (g) beginning” value is 20.5 g, the “Animal weight (g) end” value turned out to be 23.6 g and the “Tumor weight” value is reported as 1.14 ± 0.17 g. Moreover, the “Inhibition rate (%)” value with mouse Lewis lung cancer (25 mg/kg/d iv x7 qd) is given as 57.93%. In the data set on mouse Lewis lung cancer (100 mg/kg/d iv x7 qd), the “Animal No. beginning/end (survival)” value was 10/6, the “Animal weight (g) beginning” value turned out to be 20.7 g and the “Animal weight (g) end” value is listed as 23.1 g. Further, in the data set with mouse Lewis lung cancer (100 mg/kg/d iv x7 qd (text: administered only 5 times because of toxicity)), the “Tumor weight” value amounted to 1.00 ± 0.15 g. In addition, the “Inhibition rate (%)” value in the data set with mouse Lewis lung cancer (100 mg/kg/d iv x7 qd (text: only 5 times because of toxicity)) came to 63.10%.

For the compound `CC(=O)O[C@H]1C(=O)[C@@]2(C)[C@H]([C@H](OC(=O)c3ccccc3)[C@]3(O)C[C@H](OC(=O)[C@H](O)[C@@H](NC(=O)c4ccccc4)c4ccccc4)C(C)=C1C3(C)C)[C@]1(OC(C)=O)CO[C@@H]1C[C@@H]2O` [Taxol, paclitaxel, reference compound], in data set [2] (setting [6]), the “Mice with palpable tumor / total mice” value was 4/6†† and the “Tumor volume (cm^3)” value came to 0.01 cm^3. Moreover, the “Tumor volume (cm^3)” value in data set [2] (10 mg/kg iv x7 qd, 14 d) was found to be 0.065 ± 0.02 cm^3. Also, the “Tumor volume (cm^3)” value in data set [2] (10 mg/kg iv x7 qd, 21 d) came to 0.249 ± 0.07 cm^3. Moreover, the “Tumor volume (cm^3)” value in data set [2] (10 mg/kg iv x7 qd, 24 d (end)) was 0.685 cm^3 and 0.685 ± 0.14 cm^3. In data set [2] (10 mg/kg/d iv x7 qd), the “TV inhibition rate % T/C” value is recorded as 39.05%, the “Tumor weight” value is 0.88 ± 0.17 g and the “tumor inhibition rate %” value amounted to 48.84%. The “Body weight of mice” value in data set [2] (10 mg/kg/d iv x7 qd, 0 day (beginning)) is 18.1 g and 18.1 ± 1.1 g. The “Body weight of mice” value in data set [2] (10 mg/kg/d iv x7 qd, 7 day) is given as 19.7 ± 1 g. Further, the “Cell population at G2/M phase” value in data set [3] is given as “increased significantly”. Also, in data set [4], the “Mice with palpable tumor / total mice” value is reported as 2/6. In the data set on mouse Lewis lung cancer (10 mg/kg/d iv x7 qd), the “Animal weight (g) beginning” value stood at 20.4 g, the “Animal weight (g) end” value is listed as 23.8 g, the “Tumor weight” value is recorded as 1.52 ± 0.15 g and the “Inhibition rate (%)” value amounted to 43.91%.
